Here are results for 22 molecules from ChEMBL document CHEMBL2380304, “Synthesis of 2-methoxybenzoylhydrazone and evaluation of their antileishmanial activity” (Bioorg Med Chem Lett, 2013).

Structures are written as SMILES.

The subject of the experiment is Leishmania major. The experiment in a line: Antileishmanial activity against promastigotes of Leishmania major after 72 hrs by Neubauer counting chamber-based microscopic analysis. Format: functional, organism-based.

In turn, `COc1ccccc1C(=O)N/N=C/c1ccccn1` registered an IC50 of 60 µM. With `COc1ccccc1C(=O)N/N=C/c1ccncc1` the figure was 75.9 µM; with `COC(=O)c1ccc(/C=N/NC(=O)c2ccccc2OC)cc1`, 15.7 µM; with `COc1ccccc1C(=O)N/N=C/c1ccc(Br)c(F)c1`, 77.4 µM. With `COc1ccccc1C(=O)N/N=C/c1cc(O)c(O)c(O)c1` the figure was 31.5 µM. With `COc1ccccc1C(=O)N/N=C/c1ccc(O)c(O)c1` the figure was 3.29 µM. The molecule `COc1ccc(/C=N/NC(=O)c2ccccc2OC)cc1Br` yielded an IC50 of 7.64 µM. Molecule `COc1ccc(/C=N/NC(=O)c2ccccc2OC)cc1OC` registered an IC50 of 13.2 µM. Turning to `COc1ccc(/C=N/NC(=O)c2ccccc2OC)cc1`, the IC50 was 40.1 µM. In turn, `COc1ccccc1C(=O)N/N=C/c1cccnc1` returned an IC50 of 1.95 µM.

`COc1ccccc1C(=O)N/N=C/c1cccs1` returned an IC50 of 2.49 µM. `COc1ccccc1C(=O)N/N=C/c1ccc([N+](=O)[O-])cc1`: the IC50 was 31.6 µM. The molecule `COc1ccccc1C(=O)N/N=C/c1ccc(Cl)cc1` displayed an IC50 of 68.5 µM. In the case of `COc1ccccc1C(=O)N/N=C/c1cccc(O)c1O`, the IC50 turned out to be 68 µM.

The molecule `COc1ccccc1C(=O)N/N=C/c1cc(O)ccc1O` had an IC50 of 34.9 µM. Molecule `COc1ccccc1C(=O)N/N=C/c1ccc(O)cc1O` showed an IC50 of 88.6 µM.

In the case of `COc1ccccc1C(=O)N/N=C/c1ccc(O)cc1`, the IC50 was 57.4 µM. In turn, `COc1ccc(/C=N/NC(=O)c2ccccc2OC)c(O)c1` came in with an IC50 of 13.2 µM. With `COc1ccc(/C=N/NC(=O)c2ccccc2OC)cc1O` the figure was 45.7 µM. In the case of `COc1ccccc1C(=O)N/N=C/c1ccc(OC)c(O)c1I`, the IC50 is 63.4 µM. In the case of `COc1cc(/C=N/NC(=O)c2ccccc2OC)cc(OC)c1`, the IC50 turned out to be 53.1 µM. `N=C(N)c1ccc(OCCCCCOc2ccc(C(=N)N)cc2)cc1` [PENTAMIDINE] had an IC50 of 5.09 µM.
